# Test results: ChEMBL document CHEMBL5291721, “A preclinical secondary pharmacology resource illuminates target-adverse drug reaction associations of marketed drugs” (Nat Commun, 2023)
# What was measured:
# [1] = biological target: T1, Alpha-1A adrenergic receptor (Homo sapiens, UniProt P35348); assay type: functional, cell-based
# T1 sequence (P35348 whole entry): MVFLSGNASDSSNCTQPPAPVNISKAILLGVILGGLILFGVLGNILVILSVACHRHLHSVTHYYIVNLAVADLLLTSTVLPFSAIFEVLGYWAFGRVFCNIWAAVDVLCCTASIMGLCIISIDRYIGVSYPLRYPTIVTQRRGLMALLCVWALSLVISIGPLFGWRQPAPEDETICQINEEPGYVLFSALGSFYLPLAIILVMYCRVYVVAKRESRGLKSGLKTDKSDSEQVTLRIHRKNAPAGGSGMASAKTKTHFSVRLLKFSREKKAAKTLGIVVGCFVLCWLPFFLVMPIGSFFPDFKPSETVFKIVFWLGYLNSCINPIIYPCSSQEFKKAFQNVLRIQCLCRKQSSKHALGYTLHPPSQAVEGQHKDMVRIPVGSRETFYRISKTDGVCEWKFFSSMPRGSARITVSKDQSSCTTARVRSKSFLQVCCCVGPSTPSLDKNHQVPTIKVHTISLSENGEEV
# [2] = biological target: Beta-1 adrenergic receptor (Homo sapiens, UniProt P08588); assay type: functional
# Chain of Beta-1 adrenergic receptor (P08588 whole entry): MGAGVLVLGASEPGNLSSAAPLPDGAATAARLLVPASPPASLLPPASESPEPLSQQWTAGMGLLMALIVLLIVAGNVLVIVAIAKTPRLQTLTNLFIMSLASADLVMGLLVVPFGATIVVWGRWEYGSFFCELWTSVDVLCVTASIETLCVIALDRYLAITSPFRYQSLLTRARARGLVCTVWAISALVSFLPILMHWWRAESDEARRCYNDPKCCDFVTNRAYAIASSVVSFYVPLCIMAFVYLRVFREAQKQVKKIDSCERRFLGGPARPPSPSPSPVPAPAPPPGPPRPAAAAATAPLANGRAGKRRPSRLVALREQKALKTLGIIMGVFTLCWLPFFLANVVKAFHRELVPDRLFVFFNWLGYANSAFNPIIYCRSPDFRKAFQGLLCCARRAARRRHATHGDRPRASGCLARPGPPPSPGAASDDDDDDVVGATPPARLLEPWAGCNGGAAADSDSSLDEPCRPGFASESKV
# [3] = biological target: Beta-2 adrenergic receptor (Homo sapiens, UniProt P07550)
# Chain of Beta-2 adrenergic receptor (P07550 whole entry): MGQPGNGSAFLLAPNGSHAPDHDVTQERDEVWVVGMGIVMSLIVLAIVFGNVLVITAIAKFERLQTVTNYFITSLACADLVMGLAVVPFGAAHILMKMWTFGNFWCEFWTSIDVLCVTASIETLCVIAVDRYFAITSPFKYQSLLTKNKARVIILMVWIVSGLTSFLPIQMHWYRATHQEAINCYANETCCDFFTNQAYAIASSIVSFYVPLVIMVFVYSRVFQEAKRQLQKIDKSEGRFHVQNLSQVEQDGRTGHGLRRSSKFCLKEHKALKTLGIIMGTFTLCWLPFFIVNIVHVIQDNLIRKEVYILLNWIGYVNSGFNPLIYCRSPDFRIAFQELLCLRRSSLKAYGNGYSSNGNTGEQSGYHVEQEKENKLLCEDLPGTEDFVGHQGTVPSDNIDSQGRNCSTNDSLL
# [4] = biological target: T2, Type-1 angiotensin II receptor (Homo sapiens, UniProt P30556)
# T2 sequence (P30556 whole entry): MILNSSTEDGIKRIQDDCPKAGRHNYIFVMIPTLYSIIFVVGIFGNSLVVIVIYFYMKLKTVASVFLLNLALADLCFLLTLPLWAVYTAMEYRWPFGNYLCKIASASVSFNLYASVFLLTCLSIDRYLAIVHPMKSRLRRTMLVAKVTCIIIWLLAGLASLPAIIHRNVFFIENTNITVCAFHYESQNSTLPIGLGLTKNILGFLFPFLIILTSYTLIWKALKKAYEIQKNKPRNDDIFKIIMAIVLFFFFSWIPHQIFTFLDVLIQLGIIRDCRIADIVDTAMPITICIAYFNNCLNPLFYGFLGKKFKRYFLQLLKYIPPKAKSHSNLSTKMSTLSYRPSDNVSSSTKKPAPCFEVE
# Vasopressin V2 receptor = Vasopressin V2 receptor (Homo sapiens, UniProt P30518)
# Chain of Vasopressin V2 receptor (P30518 whole entry): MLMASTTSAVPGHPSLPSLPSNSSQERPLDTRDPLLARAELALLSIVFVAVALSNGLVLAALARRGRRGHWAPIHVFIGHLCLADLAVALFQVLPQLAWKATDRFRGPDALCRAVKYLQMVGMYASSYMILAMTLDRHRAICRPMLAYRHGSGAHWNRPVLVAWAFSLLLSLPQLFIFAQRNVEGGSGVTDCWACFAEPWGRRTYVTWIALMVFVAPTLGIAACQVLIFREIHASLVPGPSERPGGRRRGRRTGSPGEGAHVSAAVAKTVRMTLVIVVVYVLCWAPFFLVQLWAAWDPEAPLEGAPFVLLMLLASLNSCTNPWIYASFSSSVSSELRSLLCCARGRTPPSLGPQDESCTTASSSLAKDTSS
# [5] = biological target: Voltage-dependent L-type calcium channel subunit alpha-1C (Rattus norvegicus, UniProt P22002); assay type: functional
# [6] = biological target: Gamma-aminobutyric acid receptor subunit alpha-1 (Rattus norvegicus, UniProt P62813); assay type: functional
# Chain of Gamma-aminobutyric acid receptor subunit alpha-1 (P62813 whole entry): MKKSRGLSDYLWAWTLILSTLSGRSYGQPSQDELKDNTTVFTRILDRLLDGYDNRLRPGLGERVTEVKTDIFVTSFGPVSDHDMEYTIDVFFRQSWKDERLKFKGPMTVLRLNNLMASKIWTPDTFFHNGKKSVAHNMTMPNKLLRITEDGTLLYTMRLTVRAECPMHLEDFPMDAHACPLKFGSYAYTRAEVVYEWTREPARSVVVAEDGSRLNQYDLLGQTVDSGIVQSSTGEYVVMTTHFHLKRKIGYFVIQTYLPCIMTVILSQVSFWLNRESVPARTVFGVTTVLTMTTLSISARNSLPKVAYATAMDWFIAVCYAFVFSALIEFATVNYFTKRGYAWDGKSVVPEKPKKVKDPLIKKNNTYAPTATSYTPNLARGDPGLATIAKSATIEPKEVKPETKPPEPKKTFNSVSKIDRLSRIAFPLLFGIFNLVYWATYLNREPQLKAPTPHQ
# Histamine H2 receptor = Histamine H2 receptor (Homo sapiens, UniProt P25021); assay type: functional, cell-based
# Chain of Histamine H2 receptor (P25021 whole entry): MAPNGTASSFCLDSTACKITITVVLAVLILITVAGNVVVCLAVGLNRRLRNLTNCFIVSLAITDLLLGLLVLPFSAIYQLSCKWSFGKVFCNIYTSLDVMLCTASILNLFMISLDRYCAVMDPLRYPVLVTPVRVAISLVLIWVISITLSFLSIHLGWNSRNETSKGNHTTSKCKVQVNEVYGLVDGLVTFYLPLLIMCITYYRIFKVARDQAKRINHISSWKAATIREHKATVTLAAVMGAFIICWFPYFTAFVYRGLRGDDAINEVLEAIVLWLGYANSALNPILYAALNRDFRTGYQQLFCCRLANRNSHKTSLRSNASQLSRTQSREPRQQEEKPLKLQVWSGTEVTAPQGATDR
# [7] = biological target: T3, 5-hydroxytryptamine receptor 2C (Homo sapiens, UniProt P28335)
# T3 sequence (P28335 whole entry): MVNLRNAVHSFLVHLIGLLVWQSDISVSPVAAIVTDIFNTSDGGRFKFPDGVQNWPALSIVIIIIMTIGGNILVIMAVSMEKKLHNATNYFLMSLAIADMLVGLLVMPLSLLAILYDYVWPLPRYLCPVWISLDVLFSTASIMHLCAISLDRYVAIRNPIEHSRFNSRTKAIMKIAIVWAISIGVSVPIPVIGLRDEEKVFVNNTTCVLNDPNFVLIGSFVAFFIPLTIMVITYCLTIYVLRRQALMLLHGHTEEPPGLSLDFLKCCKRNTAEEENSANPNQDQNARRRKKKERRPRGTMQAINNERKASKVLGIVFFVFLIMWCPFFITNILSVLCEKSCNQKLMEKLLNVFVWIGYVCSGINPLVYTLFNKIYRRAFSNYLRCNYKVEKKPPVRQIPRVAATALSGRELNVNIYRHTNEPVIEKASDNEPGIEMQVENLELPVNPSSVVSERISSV
# Motilin receptor = Motilin receptor (Homo sapiens, UniProt O43193)
# Chain of Motilin receptor (O43193 whole entry): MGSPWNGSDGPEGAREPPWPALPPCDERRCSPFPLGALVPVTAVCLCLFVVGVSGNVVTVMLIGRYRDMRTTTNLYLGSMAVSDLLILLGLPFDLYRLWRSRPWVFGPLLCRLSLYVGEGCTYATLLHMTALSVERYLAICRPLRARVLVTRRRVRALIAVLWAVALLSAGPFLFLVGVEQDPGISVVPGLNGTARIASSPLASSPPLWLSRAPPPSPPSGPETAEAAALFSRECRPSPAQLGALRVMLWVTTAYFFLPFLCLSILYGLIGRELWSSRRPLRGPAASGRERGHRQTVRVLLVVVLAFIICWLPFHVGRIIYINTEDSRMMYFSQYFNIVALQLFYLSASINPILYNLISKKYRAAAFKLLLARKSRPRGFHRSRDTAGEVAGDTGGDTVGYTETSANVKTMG
# [8] = biological target: Delta-type opioid receptor (Homo sapiens, UniProt P41143)
# Chain of Delta-type opioid receptor (P41143 whole entry): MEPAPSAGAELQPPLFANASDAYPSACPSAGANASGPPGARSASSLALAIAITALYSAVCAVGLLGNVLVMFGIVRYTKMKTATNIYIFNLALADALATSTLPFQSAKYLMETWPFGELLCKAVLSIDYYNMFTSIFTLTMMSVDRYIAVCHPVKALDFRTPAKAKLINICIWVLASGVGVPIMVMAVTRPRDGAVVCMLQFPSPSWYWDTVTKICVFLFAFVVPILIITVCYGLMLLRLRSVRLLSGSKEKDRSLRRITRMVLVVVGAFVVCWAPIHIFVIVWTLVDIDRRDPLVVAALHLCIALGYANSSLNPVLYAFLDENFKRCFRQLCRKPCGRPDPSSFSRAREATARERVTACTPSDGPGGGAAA
# [9] = biological target: Kappa-type opioid receptor (Homo sapiens, UniProt P41145)
# Chain of Kappa-type opioid receptor (P41145 whole entry): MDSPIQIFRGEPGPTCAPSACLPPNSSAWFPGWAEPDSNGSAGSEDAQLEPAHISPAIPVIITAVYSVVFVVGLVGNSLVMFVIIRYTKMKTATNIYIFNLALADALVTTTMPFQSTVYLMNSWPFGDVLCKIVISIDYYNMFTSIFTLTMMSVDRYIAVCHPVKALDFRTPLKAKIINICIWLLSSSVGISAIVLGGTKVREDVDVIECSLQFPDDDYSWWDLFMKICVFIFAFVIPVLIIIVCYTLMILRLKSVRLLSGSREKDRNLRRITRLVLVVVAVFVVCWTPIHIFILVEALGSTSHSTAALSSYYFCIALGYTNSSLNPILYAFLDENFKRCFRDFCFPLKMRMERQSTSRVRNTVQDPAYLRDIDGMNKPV
# [10] = biological target: 3',5'-cyclic-AMP phosphodiesterase 4D (Homo sapiens, UniProt Q08499); assay type: functional
# Chain of 3',5'-cyclic-AMP phosphodiesterase 4D (Q08499 whole entry): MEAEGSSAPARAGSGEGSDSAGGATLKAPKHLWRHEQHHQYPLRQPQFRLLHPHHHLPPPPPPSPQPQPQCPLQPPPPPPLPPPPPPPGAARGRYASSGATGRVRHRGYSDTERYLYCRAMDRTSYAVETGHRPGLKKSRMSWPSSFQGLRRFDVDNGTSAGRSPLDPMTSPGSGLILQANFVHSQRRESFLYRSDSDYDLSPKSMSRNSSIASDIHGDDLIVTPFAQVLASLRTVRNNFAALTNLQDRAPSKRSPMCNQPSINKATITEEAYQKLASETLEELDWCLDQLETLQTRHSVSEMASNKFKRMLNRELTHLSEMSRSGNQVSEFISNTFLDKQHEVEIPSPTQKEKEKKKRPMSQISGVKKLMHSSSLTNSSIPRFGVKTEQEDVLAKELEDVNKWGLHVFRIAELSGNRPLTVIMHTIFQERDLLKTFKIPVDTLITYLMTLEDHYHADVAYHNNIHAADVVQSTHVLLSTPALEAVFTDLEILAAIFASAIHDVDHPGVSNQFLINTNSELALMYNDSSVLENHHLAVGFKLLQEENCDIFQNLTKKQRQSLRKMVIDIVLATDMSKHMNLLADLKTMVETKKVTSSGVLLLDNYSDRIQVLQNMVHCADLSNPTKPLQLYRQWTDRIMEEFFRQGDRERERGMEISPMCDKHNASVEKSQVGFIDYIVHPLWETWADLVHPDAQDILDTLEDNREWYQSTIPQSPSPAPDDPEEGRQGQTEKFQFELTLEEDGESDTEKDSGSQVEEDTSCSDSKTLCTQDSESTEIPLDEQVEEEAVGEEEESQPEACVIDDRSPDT
# [11] = biological target: T4, Prostaglandin G/H synthase 1 (Rattus norvegicus, UniProt Q63921); assay type: functional
# T4 sequence (Q63921 whole entry): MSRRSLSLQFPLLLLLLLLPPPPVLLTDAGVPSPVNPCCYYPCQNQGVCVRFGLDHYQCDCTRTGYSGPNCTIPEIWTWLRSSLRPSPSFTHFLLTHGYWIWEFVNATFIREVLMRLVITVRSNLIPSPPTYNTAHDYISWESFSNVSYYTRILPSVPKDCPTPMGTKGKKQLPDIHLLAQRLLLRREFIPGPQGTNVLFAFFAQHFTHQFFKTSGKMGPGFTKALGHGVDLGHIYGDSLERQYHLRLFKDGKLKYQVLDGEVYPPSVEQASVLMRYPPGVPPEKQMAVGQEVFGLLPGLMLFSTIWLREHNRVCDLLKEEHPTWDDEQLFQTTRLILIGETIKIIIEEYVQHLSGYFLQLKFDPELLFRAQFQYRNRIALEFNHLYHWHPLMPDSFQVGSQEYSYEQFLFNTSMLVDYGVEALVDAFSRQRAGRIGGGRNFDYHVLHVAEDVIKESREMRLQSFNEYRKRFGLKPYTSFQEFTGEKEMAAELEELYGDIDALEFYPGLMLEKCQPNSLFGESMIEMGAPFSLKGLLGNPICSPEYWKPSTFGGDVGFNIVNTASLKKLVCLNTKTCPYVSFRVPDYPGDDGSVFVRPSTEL
# [12] = biological target: Sodium-dependent noradrenaline transporter (Homo sapiens, UniProt P23975)
# D(3) dopamine receptor = D(3) dopamine receptor (Homo sapiens, UniProt P35462)
# Chain of D(3) dopamine receptor (P35462 whole entry): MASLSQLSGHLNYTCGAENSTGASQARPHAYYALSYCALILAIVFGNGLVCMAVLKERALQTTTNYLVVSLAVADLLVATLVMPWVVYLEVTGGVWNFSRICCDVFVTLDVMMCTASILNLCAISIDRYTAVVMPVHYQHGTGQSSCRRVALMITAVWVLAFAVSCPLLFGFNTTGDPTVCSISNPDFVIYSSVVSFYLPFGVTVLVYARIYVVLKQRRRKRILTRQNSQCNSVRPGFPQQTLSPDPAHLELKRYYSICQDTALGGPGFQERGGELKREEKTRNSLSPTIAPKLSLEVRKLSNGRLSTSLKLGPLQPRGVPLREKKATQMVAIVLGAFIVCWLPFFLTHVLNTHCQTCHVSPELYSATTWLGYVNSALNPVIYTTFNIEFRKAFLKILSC
# [13] = biological target: T1, Alpha-1A adrenergic receptor; assay type: functional, cell-based; remark: listed apart in the source
# Further: assay procedure not described here.
Compound,AC50 [1] [µM],AC50 [2] [µM],AC50 [3] [µM],AC50 [4] [µM],AC50 (Vasopressin V2 receptor) [µM],AC50 [5] [µM],AC50 [6] [µM],AC50 (Histamine H2 receptor) [µM],AC50 [7] [µM],AC50 (Motilin receptor) [µM],AC50 [8] [µM],AC50 [9] [µM],AC50 [10] [µM],AC50 [11] [µM],AC50 [12] [µM],AC50 (D(3) dopamine receptor) [µM],AC50 [13] [µM]
CN1CCN(C(=O)OC2c3nccnc3C(=O)N2c2ccc(Cl)cn2)CC1 (stereo unspecified) [ZOPICLONE],> 30,> 30,> 10,> 30,> 30,> 10,0.093,> 10,> 10,> 30,> 10,> 10,> 30,> 30,> 30,> 10,> 30
CC(C)C(=O)OCC(=O)[C@@]12O[C@H](C3CCCCC3)O[C@@H]1C[C@H]1[C@@H]3CCC4=CC(=O)C=C[C@]4(C)[C@H]3[C@@H](O)C[C@@]12C [CICLESONIDE],> 30,> 10,> 10,> 10,> 10,> 10,> 10,> 10,> 30,> 10,> 30,9.72,> 30,> 10,> 10,> 30,> 30
Cc1cc2c(OCC(CNC(C)(C)C)OC(=O)c3ccccc3)cccc2[nH]1 (stereo unspecified) [BOPINDOLOL],> 30,0.0048,0.0064,> 30,> 30,> 30,> 30,> 30,> 30,23,> 30,2.1,> 30,3.5,10.3,> 30,> 30
COc1ccc(C(=O)NCc2ccc(OCCN(C)C)cc2)cc1OC [ITOPRIDE],> 30,> 30,> 30,> 30,> 30,> 30,> 30,> 30,> 30,> 30,> 30,> 30,> 30,> 10,> 30,20,> 30
COc1c(C)c2c(c(O)c1C/C=C(\C)CCC(=O)OCCN1CCOCC1)C(=O)OC2 [MYCOPHENOLATE MOFETIL],> 30,> 30,> 30,> 30,> 30,> 30,> 30,> 30,> 30,> 30,> 30,> 30,> 30,,> 30,> 30,> 30
CCC(C(=O)O)c1ccc(CC(C)C)cc1 (stereo unspecified) [BUTIBUFEN],> 30,> 30,> 30,> 30,> 30,> 30,> 30,> 30,> 30,> 30,> 30,> 30,> 30,,> 30,> 30,> 30
COC(=O)[C@H]1[C@@H](OC(=O)c2ccccc2)C[C@@H]2CC[C@H]1N2C [COCAINE],> 30,> 30,> 30,> 30,> 30,> 30,> 30,> 30,> 30,> 30,> 30,> 30,> 30,> 30,,> 30,> 30
CCN1CCC[C@H]1CNC(=O)c1cc(S(N)(=O)=O)ccc1OC [LEVOSULPIRIDE],> 30,> 30,> 30,> 30,> 30,> 10,> 10,> 10,> 30,> 10,> 30,> 10,> 30,> 30,> 30,,> 30
COc1ccc2cccc(CCNC(C)=O)c2c1 [AGOMELATINE],> 30,> 10,> 10,> 30,> 30,> 10,> 10,> 30,,> 10,> 30,> 10,> 30,> 30,> 10,> 10,> 30
Cc1ccc(-c2nc3ccc(C)cn3c2CC(=O)N(C)C)cc1 [ZOLPIDEM],> 30,> 30,> 30,> 30,> 30,> 30,,> 10,> 30,> 30,> 30,18,> 30,> 30,> 30,> 30,> 30
CCOc1cc(N)c([N+](=O)[O-])cc1C(=O)NC1CCN(CC2CC=CCC2)CC1 (stereo unspecified) [CINITAPRIDE],> 30,> 30,16,> 30,> 30,> 30,14,> 30,,8.1,> 30,9.1,> 30,> 30,24,0.038,> 30
O=C(O)CCCc1ccccc1 [PHENYLBUTANOIC ACID],> 30,> 10,> 10,> 10,> 30,> 30,> 30,,> 30,> 10,> 30,> 30,> 30,> 30,> 10,> 30,> 30
